Data from article PMC11642044 (International Journal of Molecular Sciences, 2024).

How the values were obtained:
Format in all cases: cell-based, human
ERK in U87-MG cells = assay: ERK phosphorylation in U87-MG by SK-N-MC-derived conditioned media (CM-SK); conditions: HOE-140 5 μM, 15 min pre-treatment
Procedure: (§1) These conditioned media were either immediately applied to SK-N-SH/SK-N-MC cells (80–100% confluence) in 6-well plates for 15 min, or subjected to heat treatment on a 96 °C heat block for 5 min, and then cooled to 37 °C before they were applied to the SK-N-SH/SK-N-MC cells for 15 min. […] For the SK-N-MC-derived conditioned media, SK-N-MC cells (80–100% confluence) in a 10 cm culture dish were serum-starved in 10 mL of MEM (without FBS), with 1 mL of the resulting conditioned medium being collected at indicated time points (15 min, 1 h, 3 h, 6 h). Simultaneously, U87-MG cells (80–100% confluence) in 12-well plates were serum-starved in MEM for 6 h, followed by pretreatment of […] (5 μM, 15 min), and then challenged with the SK-N-MC-derived conditioned media (mentioned above) for 10 min before cell lysis. […]
(§2) SDS-PAGE and Western blotting were performed as described in our previous studies. […] The amount of protein in each sample was determined by detergent compatible (DC) protein assay according to the supplier’s instruction (Bio-Rad, Hercules, CA, USA). […] Resolved proteins were detected by specific primary antibodies and horseradish peroxidase-conjugated secondary antisera. The level of β-actin was determined as an internal control.

[1] = tested on: B2R-mediated LIF secretion in U87-MG cells; assay: Inhibition of bradykinin-induced LIF production (ELISA), U87-MG; conditions: 5 μM HOE-140, 30 min pre-treatment, bradykinin 1 µM, 24 h
Procedure: Conditioned media were analyzed for the presence of multiple cytokines by using the cytokine multiplex assay kits (Merck Millipore, MA, USA) as previously described. Briefly, a bead mixture with various capture antibodies (50 μL) was added to a 96-well microtiter plate, followed by 50 μL of cytokine standard mix or test sample and then 25 μL of a biotinylated detection antibody mixture. The mixtures were incubated for 30 min at 25 °C with gentle shaking. Unbound antibodies were removed by three gentle washes. Finally, 50 μL of streptavidin–PE solution was added and incubated for another 30 min with gentle shaking. The detection beads were then washed again and resuspended in 120 μL of reading buffer. The Bio-Plex™ 200 system (Bio-Rad Laboratories, Hercules, CA, USA) with the Bio-Plex manager software (version 5.0) was utilized for signal detection and data analysis. Curve fitting was applied to each standard curve according to the manufacturer’s manual and sample concentrations were interpolated from the standard curves. Individual detections for LIF and IL-6 were performed using the corresponding ELISA kits from Abcam (Cambridge, UK) according to the manufacturer’s instructions.
(§3) The resulting Ca^2+ signal profiles were monitored by FLIPR for 3 min.

JNK = assay: Stimulatory phosphorylation of JNK (Western blot), U87-MG; conditions: 5 μM HOE-140, 1 µM bradykinin, 10 min
Procedure: as §3
(§4) SDS-PAGE and Western blotting were performed as described in our previous studies. In brief, cells in 6-well plates (5 × 10^5 cells/well) were lysed in 500 μL of ice-cold lysis buffer (50 mM Tris-HCl at pH 7.5 containing 100 mM NaCl, 5 mM EDTA, 40 mM NaP2O7, 1% Triton X-100, 1 mM dithiothreitol, 200 μM Na3VO4, 100 μM phenylmethylsulfonyl fluoride, 2 μg/mL leupeptin, 4 μg/mL aprotinin, and 0.7 μg/mL pepstatin) and then gently shaken for 30 min. The amount of protein in each sample was determined by detergent compatible (DC) protein assay according to the supplier’s instruction (Bio-Rad, Hercules, CA, USA). Clarified lysates (30 μg protein per sample) were resolved on 12% SDS-polyacrylamide gels and then transferred to nitrocellulose membranes (Westborough, MA, USA). Resolved proteins were detected by specific primary antibodies and horseradish peroxidase-conjugated secondary antisera. The level of β-actin was determined as an internal control. […] Chemiluminescence signals were then detected by ChemiDoc imaging systems (Bio-Rad, Hercules, CA, USA) with the subsequent band densities quantified by ImageJ (https://imagej.net/ij/) analysis software (National Institutes of Health, MD, USA). […]
(§5) Chemiluminescence signals were then detected by the ChemiDoc Imaging Systems (Bio-Rad, […]

ERK = assay: Stimulatory phosphorylation of ERK (Western blot), U87-MG; conditions: 5 μM HOE-140, 1 µM bradykinin, 10 min
Procedure: as §3, §4, §5

JNK in U87-MG cells = assay: JNK phosphorylation in U87-MG by SK-N-MC-derived conditioned media (CM-SK); conditions: HOE-140 5 μM, 15 min pre-treatment
Procedure: as §1, §2

p38 in U87-MG cells = assay: p38 phosphorylation in U87-MG by SK-N-MC-derived conditioned media (CM-SK); conditions: HOE-140 5 μM, 15 min pre-treatment
Procedure: as §1, §2

p38 MAPK = assay: Stimulatory phosphorylation of p38 MAPK (Western blot), U87-MG; conditions: 5 μM HOE-140, 1 µM bradykinin, 10 min
Procedure: as §3, §4, §5

HOE-140
inhibition of CM-SK-stimulated ERK phosphorylation (ERK in U87-MG cells): significantly inhibited | inhibition of bradykinin-induced LIF production [1]: blocked the ability of bradykinin to stimulate LIF production | inhibition of bradykinin-induced JNK activation (JNK): completely abolished | inhibition of bradykinin-induced ERK activation (ERK): completely abolished | inhibition of CM-SK-stimulated JNK phosphorylation (JNK in U87-MG cells): significantly inhibited | inhibition of CM-SK-stimulated p38 phosphorylation (p38 in U87-MG cells): significantly inhibited | inhibition of bradykinin-induced p38 MAPK activation (p38 MAPK): completely abolished
